Laboratory results reported in ChEMBL document CHEMBL3507680, “University of Dundee, Gates Library screen for HepG2 cell viability”.

Experiment: Human HepG2 cell viability assay in 384 well format
Type: toxicity, cell-based
Design: dose 125 nL, time 70.5 hour; cytotoxicity at 70.5 h: concentration not given beside the values
Settings: HepG2 cells, read-out: Inhibition

Structure (SMILES)	cytotoxicity at 70.5 h [%]
CC(C)NC(=O)Nc1ccc2c(c1)ncn2CC(=O)NCCN(C)C	-12.7
O=c1c(NCc2ccncc2)c(NCC(O)CN2CCOCC2)c1=O (stereo unspecified)	-17.9
CN(C)CCNC(=O)Cn1cnc2cc(NC(=O)C3CC3)ccc21	-10.6
CC(C)(CO)Nc1c(NCc2ccncc2)c(=O)c1=O	-9.44
Cc1cccc2c1ccn2CCC(=O)Nc1c2c(nn1C)CSC2	-7.62
CC1CC(=O)c2cc(C(=O)N3CCN(C)CC3)c(=O)[nH]c2C1 (stereo unspecified)	-5.53
O=c1c(NCCNCCO)c(N2CCN(c3ccccc3)CC2)c1=O	-6.86
CC(C)(CO)Nc1c(NCc2ccccn2)c(=O)c1=O	-8.21
CC(C)CC(=O)Nc1ccc2c(c1)ncn2CC(=O)NCCN(C)C	-6.17
CC(C)c1nnc(NC(=O)CN2C(=O)c3ccccc3NC2C(C)C)s1 (stereo unspecified)	-13
COc1cc(OC)cc(-c2noc(CC(N)c3ccccc3)n2)c1 (stereo unspecified)	-5.26
COc1c[nH]c(C(=O)Nc2nc(C(C)(C)C)cs2)cc1=O	-0.552
CC(C)CNC(=O)c1cccc(Oc2ccc3nncn3n2)c1	-9.71
Cn1ccc2cc(C(=O)NC3CCOC(C)(C)C3)ccc21 (stereo unspecified)	7.49
COc1cc(C2SC(C)=Nc3c2c(=O)[nH]n3C2CCCC2)ccc1O (stereo unspecified)	-9.1
Cc1cc(N2CCCCC2)nc(N(CCO)CCO)c1C#N	-8.15
Cc1cc(NCc2ccccc2)nc2[nH]nc(N)c12	-12.7
O=C(Cn1nc2c(cc1=O)CSCC2)N[C@@H](Cc1ccccc1)C(=O)O	-5.32
COCCn1ccc(=O)c(OCC(=O)Nc2ccc(OC)cc2)c1C	-12
Cn1[nH]c(CNc2cccc(Cl)c2)nc1=O	-0.326
Cc1cc(N2CCOCC2)nc(N(C)CCO)c1C#N	-5.45
COc1ccc(-c2csc3c2c(N)nc(=O)n3CC(N)=O)cc1	-14.6

Structure (SMILES)	cytotoxicity at 70.5 h [%]
O=C1CC(c2ccsc2)c2cnn(C3CCCC3)c2N1 (stereo unspecified)	-9.93
CCOC(=O)Cn1c(=O)nc(N)c2c(-c3ccc(OC)cc3)csc21	-12.9
CN(C)S(=O)(=O)c1ccc(-c2nc(C#N)c(NC3CCCCC3)o2)o1	-9.49
O=C(Cn1ncc2c(c1=O)CCCCC2)Nc1cccc2[nH]ccc12	3.91
Cn1cc(NC(=O)CNC(=O)N2CCN(c3cccc(Cl)c3)CC2)cn1	-4.74
CC1=Nc2c(c(=O)[nH]n2C2CCCCC2)C(c2cccnc2)S1 (stereo unspecified)	-12
CC1=Nc2c(c(=O)[nH]n2C(C)C)C(c2ccc3c(c2)OCCO3)S1 (stereo unspecified)	7.71
C=C(C)CN1CCN(CCC(=O)Nc2ccccc2C(N)=O)CC1	-10.8
Cc1nnc(NC(=O)CCc2c(C)nn3cnnc3c2C)s1	-7.03
O=C(NCCc1c[nH]c2ccc(F)cc12)C1(n2cnnn2)CCCCC1	-22.2
O=C(Cn1ncc2c(c1=O)CCCC2)Nc1cccc2[nH]ccc12	6.81
CNc1oc(-c2ccc(S(=O)(=O)N(C)C)o2)nc1C#N	22.7
O=C(CC1CCCC1)Nc1ccc(-n2cc(Br)cn2)nc1	-2.32
CC(=O)Nc1ccc(Oc2ccc3c(c2)OCO3)nc1	-12.3
CC(C)C(=O)Nc1ccc(Oc2ccc3c(c2)OCO3)nc1	-10.1
O=C(COc1coc(CN2CCOCC2)cc1=O)Nc1ccc(Cl)cc1	-17.6
COCCn1ccc2c(NC(=O)C(C)C)cccc21	-1.52
COc1cccc2c1ccn2CCNC(=O)C1CCC1	-13.3
Cc1ccnc(NC(=O)C2(n3cnnn3)CCCCC2)c1	-23.1
O=C(NCC(=O)N1CCc2ccccc2C1)c1cnccn1	-6.74
O=c1cc2c(nn1CN1CCC(c3ccccc3)CC1)CCC2	-17.6
CC(C)NC(=O)[C@H](C)NC(=O)N1CCN(c2ccc(Cl)cc2)CC1	-15.6

Structure (SMILES)	cytotoxicity at 70.5 h [%]
O=c1cc2c(nn1CN1CCSCC1)CCC2	-19.6
COc1ccc2nnc(CCCC(=O)NCc3ccccc3OC)n2n1	-15.5
COc1ccc2c(c1)c(C(=O)Nc1nnn[nH]1)cn2C	-13.5
O=C(NCCc1ccccn1)C1(n2cnnn2)CCCCC1	14.5
COc1ccc(-n2ncc3c2NC(=O)CSC3CC(C)C)cc1 (stereo unspecified)	-19.5
Cc1cc(C(=O)N2C[C@@H]3CN(S(C)(=O)=O)CCO[C@@H]3C2)c(C)o1	19.5
CN(C)C(=O)N[C@@H]1CN(S(C)(=O)=O)[C@@H]2CCCO[C@@H]21	47.9
Cc1nc(C(=O)N2C[C@@H]3CN(S(C)(=O)=O)CCO[C@@H]3C2)cs1	-1.34
Cc1noc(C)c1CN1CC2(CCCCN2c2cncnc2)CC1=O (stereo unspecified)	-3.04
Cc1ccc(C(=O)N2C[C@@H]3CN(S(C)(=O)=O)CCO[C@@H]3C2)s1	0.775
Cc1nc(-c2ccc(F)cc2)nc2c1CCN(C(=O)CN(C)C)CC2	-1.65
COc1ccc(CC(=O)N2CC[C@@H]3NC(=O)CC[C@@H]32)cc1	3.62
COc1cccc(CC(=O)N2CC[C@H]3[C@@H]2CCC(=O)N3C)c1	4.41
COc1cc(N2CCCn3cnc(COCCO)c3C2)ncn1	0.488
c1cnc(N2CCO[C@H]3[C@H](OCCN4CCOCC4)CC[C@@H]32)nc1	-2.53
COc1cccc(CC(=O)N2CC[C@@H]3NC(=O)CC[C@@H]32)c1	-0.893
CC(C)NC(=O)C1CN(Cc2cccs2)Cc2ccnn2C1 (stereo unspecified)	3.45
Cc1ncsc1C(=O)N1CC[C@@H]2[C@@H](CC1)OCCN2c1cccnc1	-8.57
CC(=O)N1CCS(=O)(=O)[C@@H]2CCN(S(=O)(=O)CC(C)C)CC[C@@H]21	-6.44
COCc1nn(C)c2c1CN(C(=O)c1ccno1)CC2	-9.37
Cc1nocc1C(=O)N1CCCC2(CCN(c3ccsc3)C2=O)C1 (stereo unspecified)	-6.39
Cc1oncc1C(=O)N1CCCc2c(C#N)nn(C)c2C1	-7.62

Structure (SMILES)	cytotoxicity at 70.5 h [%]
Cc1csc(CN2CC[C@H]3C[C@H](c4ccncn4)O[C@@H]3C2)n1	-2.15
CC(C)n1c(=O)c2ccccc2n(CCN(C)C)c1=O	-8.7
Cc1ccc2c(c1)C(NC(C)C)CC21CCNCC1 (stereo unspecified)	-1.86
Cc1ccc2c(c1)C1(CCNCC1)CC2NC(C)C (stereo unspecified)	-2.54
CC(C)NC1CC2(CCNCC2)c2cc(F)ccc21 (stereo unspecified)	-2.34
Cc1nc(N2CCCC2)nc2c1CCN(C(=O)CN(C)C)CC2	-3.18
CN(C)C(=O)N[C@@H]1CN(C2CCOCC2)[C@@H]2CCCO[C@@H]21	-2.52
O=C(NC1CCC1)[C@H]1C[C@@H]2[C@@H](C1)OCCN2CC1CC1	0.808
O=C(c1ccoc1)N1CCC2(CCC(=O)N2Cc2ccncc2)CC1	5.56
CN(C)C(=O)CO[C@@H]1CC[C@H]2[C@H]1OCCN2c1ncccn1	4.77
Cc1cccc(CN2Cc3[nH]nc(COCC4CC4)c3C2)n1	3.89
COc1cccc(CN2CCC3(CCN(c4ncc(C)cn4)CC3)C2)c1	1.49
O=C(CO[C@@H]1CC[C@H]2[C@H]1OCCN2c1ncccn1)N1CCCC1	-0.322
Cc1cccc(CN2Cc3[nH]nc(COCc4nccs4)c3C2)n1	-0.324
Cc1ccc(N2CCO[C@H]3[C@H](OCC(=O)N4CCCC4)CC[C@@H]32)cc1	-1.99
COc1cccc(CN2CCC3(CC2)CCN(c2ncc(F)cn2)C3)c1	0.909
CNC(=O)COC1COC2(CCN(c3ccc(C)nn3)CC2)C1 (stereo unspecified)	0.115
N#Cc1cccc(CN2CC3(CCCCN3c3cccnc3)CC2=O)c1 (stereo unspecified)	-1.1
CCS(=O)(=O)N1Cc2nnn(C)c2C(COCCN(C)C)C1 (stereo unspecified)	-0.313
CC(C)CN1CCS(=O)(=O)[C@@H]2CCN(S(=O)(=O)c3ccccc3)CC[C@@H]21	-1.95
COCCN1C(=O)CC[C@]12CC[C@@H](NCc1cccc(C)n1)CC2	0.785
O=C(c1cc[nH]n1)N1CC[C@@H]2CN(Cc3ccccc3)S(=O)(=O)[C@@H]2CC1	-13.3

Structure (SMILES)	cytotoxicity at 70.5 h [%]
CC(C)CN1CCS(=O)(=O)[C@@H]2CCN(S(=O)(=O)N(C)C)CC[C@@H]21	-5.76
COc1ccc(CN2CC[C@@H]3CN(S(C)(=O)=O)CCO[C@@H]3C2)cc1	-2.97
CS(=O)(=O)N1CCCC12CCN(Cc1nccs1)CC2	-3.49
Cn1nc(COCC2CC2)c2c1CN(C(=O)c1ccno1)CC2	-9.87
COCCN1C(=O)CC[C@]12CC[C@@H](NCc1nccs1)CC2	-6.2
CN1CCN(CC2CC2)C(=O)C12CCN(C(=O)c1ccnnc1)CC2	-5.46
CS(=O)(=O)N1CCO[C@@H]2CN(Cc3ccc(F)cc3)CC[C@@H]2C1	-4.41
CC(=O)N1CC[C@@H]2CN(Cc3ccncc3)S(=O)(=O)[C@@H]2CC1	0.262
CCS(=O)(=O)N1CC[C@@H]2[C@H](CC1)N(CC(C)C)CCS2(=O)=O	-1.74
Cc1ccc(C(=O)N2CCO[C@H]3[C@H](OCc4ccccn4)CC[C@@H]32)o1	-3.92
Cc1ccc(C(=O)N2C[C@@H]3CCCO[C@@H]3[C@H](N3CCOCC3)C2)cn1	2.11
COc1cccc(CN2CCC3(CC2)CCN(c2ncccn2)C3)c1	2.21
Cc1cc(CN2C[C@@H]3CCCO[C@@H]3[C@H](N(C)C(C)C)C2)no1	-3.76
Cc1ncsc1CN1C[C@@H]2CCCO[C@@H]2[C@H](N(C)C(C)C)C1	-4.74
O=C(c1cnccn1)N1CCCC2(CCN(Cc3cccnc3)C2)C1 (stereo unspecified)	-4.19
COc1ncccc1CN1C[C@@H]2OCCN(CCN(C)C)[C@@H]2C1	-3.67
COc1ccc2c(c1)C1(CCN(Cc3cccnc3)CC1)N(C)CC2	-1.98
COc1cc(N2CCCn3cnc(COC(C)C)c3C2)ncn1	13.3
